Source: US20250026721A1, “COMPOUNDS AND METHODS FOR MODULATING RAS-PI3K” (Vividion Therapeutics, Inc., priority 2023, published 2025)
pIC50: −log10 of the molar value.

Target: T1, PIK3CA (Homo sapiens, UniProt P42336)
T1 construct: endogenous in cells; host or cells: Jurkat cell lysate
Assay: In vitro ELISA target engagement assay for PIK3CA in Jurkat cellular lysate (competition with PIK3CA Biotin Probe)
Type: binding
Details: 1 hour at rt, then 500 nM PIK3CA Biotin Probe, read-out: Elisa Target Engagement Assay (TE50)
Protocol: Example 3. In Vitro ELISA Target Engagement Assay for […] Engagement of compounds on PIK3CA were assessed in Jurkat cellular lysate via a sandwich ELISA. A solution of PIK3CA Biotin Probe was generated at 10 mM and used in the biological testing. […] Treatment Protocol: Jurkat cellular lysate was generated from frozen cell pellets. Cells were thawed on ice and resuspended in cold Dulbecco's phosphate buffered saline (DPBS) (12 mL/300 e^6 cells) then lysed by probe sonication (12×3 second pulses). Jurkat lysate was plated (50 μl/well) in Armadillo 96 well PCR plates (Thermo Fisher catalog number AB2396). The lysate was treated with serial dilutions of test compounds up to 200 μM and incubated for 1 hour at rt. Following compound incubation, PIK3CA Biotin Probe was added to a final concentration of 500 nM, and lysate was mixed by pipetting gently and incubated for an additional 1 hour at rt. The mixture was then diluted in 75 μL Dilution buffer. The mixture was centrifuged for 5 minutes at 4122 g and stored at −80° C. until ELISA TE detection. ELISA TE Detection: Quantification of PIK3CA TE was initiated by coating of the ELISA plate (Thermo Scientific White 384-Well Immuno plates; Thermo Fisher catalog number 460372). The capture antibody was diluted in plating buffer (1:83) and added to the ELISA plate, 20 μl/well, overnight at 4° C. The plate was then washed twice with PBST, 100 μl/well, and blocked with addition of blocking buffer (100 μl/well, 1 hour at rt). During block, treated and probe labeled lysate was thawed. After Block, the block buffer was removed and the thawed lysate was added to the ELISA plate, 30 μl/well, for 1.5 hours at rt. Following lysate incubation, the assay plate was washed 3 times with PBST, 100 μl/well. The Neutravidin-HRP was then diluted (1:500 in dilution buffer) and added for 1 hour at rt, 20 μl/well. Following incubation, the assay plate was washed 4 times with PBST, 100 μl/well, HRP substrate was added to plate, 20 μl/well and luminescence signal was read (Clariostar Plate Reader). For each compound the potency of target engagement (TE50) was determined using Graphpad Prism.

T1 sequence (P42336 whole entry): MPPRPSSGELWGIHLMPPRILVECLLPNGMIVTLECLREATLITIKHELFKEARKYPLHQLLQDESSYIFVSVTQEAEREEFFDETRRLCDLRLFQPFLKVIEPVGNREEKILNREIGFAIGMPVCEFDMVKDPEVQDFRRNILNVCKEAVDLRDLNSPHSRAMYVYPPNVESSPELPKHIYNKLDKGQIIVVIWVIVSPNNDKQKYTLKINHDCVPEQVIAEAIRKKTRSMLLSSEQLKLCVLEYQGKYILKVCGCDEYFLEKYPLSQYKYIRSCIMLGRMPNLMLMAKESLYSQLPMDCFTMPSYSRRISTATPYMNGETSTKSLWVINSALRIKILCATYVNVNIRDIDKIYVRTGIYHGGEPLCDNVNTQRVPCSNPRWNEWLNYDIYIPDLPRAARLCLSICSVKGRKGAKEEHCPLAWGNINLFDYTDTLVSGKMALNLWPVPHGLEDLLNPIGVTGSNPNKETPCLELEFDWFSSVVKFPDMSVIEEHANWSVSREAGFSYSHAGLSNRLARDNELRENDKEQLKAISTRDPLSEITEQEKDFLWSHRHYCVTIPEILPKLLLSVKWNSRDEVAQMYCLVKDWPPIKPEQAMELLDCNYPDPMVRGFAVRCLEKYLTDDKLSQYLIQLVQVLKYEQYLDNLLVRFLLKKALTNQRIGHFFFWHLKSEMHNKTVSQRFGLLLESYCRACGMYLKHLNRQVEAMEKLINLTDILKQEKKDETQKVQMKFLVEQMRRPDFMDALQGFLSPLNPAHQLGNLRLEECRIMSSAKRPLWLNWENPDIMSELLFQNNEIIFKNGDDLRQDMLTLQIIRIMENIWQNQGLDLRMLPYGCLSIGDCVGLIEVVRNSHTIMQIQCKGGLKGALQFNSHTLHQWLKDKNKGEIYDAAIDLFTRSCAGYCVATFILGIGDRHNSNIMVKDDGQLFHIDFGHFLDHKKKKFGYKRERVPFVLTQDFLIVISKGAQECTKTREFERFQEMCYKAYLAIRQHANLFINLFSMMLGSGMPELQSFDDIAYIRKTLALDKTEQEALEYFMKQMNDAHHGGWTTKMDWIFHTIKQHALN
T1 sequence (P27986 whole entry partner): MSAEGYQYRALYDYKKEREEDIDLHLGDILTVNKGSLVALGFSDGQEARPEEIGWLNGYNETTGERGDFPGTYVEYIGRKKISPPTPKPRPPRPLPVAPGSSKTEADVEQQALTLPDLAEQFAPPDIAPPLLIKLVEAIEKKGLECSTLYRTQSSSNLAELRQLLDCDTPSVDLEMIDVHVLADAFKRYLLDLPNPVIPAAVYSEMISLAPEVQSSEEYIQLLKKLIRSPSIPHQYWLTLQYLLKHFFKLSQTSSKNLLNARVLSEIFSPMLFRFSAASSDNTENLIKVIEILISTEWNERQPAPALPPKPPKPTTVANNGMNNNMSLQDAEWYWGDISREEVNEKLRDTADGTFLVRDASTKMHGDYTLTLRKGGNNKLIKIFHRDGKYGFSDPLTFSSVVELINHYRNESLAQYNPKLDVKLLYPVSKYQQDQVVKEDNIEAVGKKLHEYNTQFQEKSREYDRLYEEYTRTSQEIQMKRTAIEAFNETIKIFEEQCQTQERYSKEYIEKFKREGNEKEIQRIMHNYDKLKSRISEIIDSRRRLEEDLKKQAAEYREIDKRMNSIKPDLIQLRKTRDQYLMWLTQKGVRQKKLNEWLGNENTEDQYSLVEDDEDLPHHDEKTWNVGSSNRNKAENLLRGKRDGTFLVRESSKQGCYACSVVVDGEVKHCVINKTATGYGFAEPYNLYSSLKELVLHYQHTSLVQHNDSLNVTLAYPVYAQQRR

SMILES	pIC50
C[C@H](/C=C\S(C)(=O)=O)NC(=O)C1(F)CCN(C(=O)[C@H]2COC(C)(C)C[C@@H]2c2ccccc2Cl)CC1 (racemic) [Compound 256, 1-((3*R,4*S)-4-(2-chlorophenyl)-6,6-dimethyltetrahydro-2H-pyran-3-carbonyl)-4-fluoro-N-((R,Z)-4-(methylsulfonyl)but-3-en-2-yl)piperidine-4-carboxamide]	6.11
C[C@H](/C=C\S(C)(=O)=O)NC(=O)C1(F)CCN(C(=O)[C@@H]2CCC3(CCC3)C[C@H]2c2ccccc2Cl)CC1 (racemic) [Compound 257, 1-((6*R,7*R)-6-(2-chlorophenyl)spiro[3.5]nonane-7-carbonyl)-4-fluoro-N-((R,Z)-4-(methylsulfonyl)but-3-en-2-yl)piperidine-4-carboxamide]	6.38
C[C@H](/C=C\S(C)(=O)=O)NC(=O)C1(F)CCN(C(=O)[C@H]2CCN(C(=O)OC(C)(C)C)C[C@H]2c2ccccc2Cl)CC1 (relative stereo) [Compound 259, tert-butyl (3*R,4*S)-3-(2-chlorophenyl)-4-(4-fluoro-4-(((R,Z)-4-(methylsulfonyl)but-3-en-2-yl)carbamoyl)piperidine-1-carbonyl)piperidine-1-carboxylate]	6.18
COc1ccc(S(=O)(=O)N2CC[C@@](F)(C(=O)N[C@H](C)/C=C\S(C)(=O)=O)C[C@@H]2C)c(-c2ccccc2Cl)c1 (single isomer, unassigned) [Compound 148, (2*S,4*S)-1-((2′-chloro-5-methoxy-[1,1′-biphenyl]-2-yl)sulfonyl)-4-fluoro-2-methyl-N-((R,Z)-4-(methylsulfonyl)but-3-en-2-yl)piperidine-4-carboxamide]	6.22
C[C@@H]1C[C@](F)(C(=O)NC/C=C\C(=O)N2CC(F)(F)C2)CCN1C(=O)[C@H]1COC(C)(C)C[C@@H]1c1ccccc1Cl (single isomer, unassigned) [Compound 293, (2*R,4*S)-1-((3*R,4*S)-4-(2-chlorophenyl)-6,6-dimethyltetrahydro-2H-pyran-3-carbonyl)-N-((Z)-4-(3,3-difluoroazetidin-1-yl)-4-oxobut-2-en-1-yl)-4-fluoro-2-methylpiperidine-4-carboxamide]	6.09
C[C@H](/C=C\S(C)(=O)=O)NC(=O)C1(F)CCN(C(=O)[C@H]2CCN(CC(F)(F)F)C[C@@H]2c2ccccc2Cl)CC1 (single isomer, unassigned) [Compound 307, 1-((3*S,4*S)-3-(2-chlorophenyl)-1-(2,2,2-trifluoroethyl)piperidine-4-carbonyl)-4-fluoro-N-((R,Z)-4-(methylsulfonyl)but-3-en-2-yl)piperidine-4-carboxamide]	6.07
CCOCc1cccc(-c2cc(Cl)ccc2S(=O)(=O)N2CCC(F)(C(=O)N[C@@H](C)/C=C\S(C)(=O)=O)CC2)c1 [Compound 17, (S,Z)-1-((5-chloro-3′-(ethoxymethyl)-[1,1′-biphenyl]-2-yl)sulfonyl)-4-fluoro-N-(4-(methylsulfonyl)but-3-en-2-yl)piperidine-4-carboxamide]	6.12
COc1cccc(-c2ccccc2S(=O)(=O)N2CCC(F)(C(=O)N[C@@H](C)/C=C\S(C)(=O)=O)CC2)c1 [Compound 19, (S,Z)-4-fluoro-1-((3′-methoxy-[1,1′-biphenyl]-2-yl)sulfonyl)-N-(4-(methylsulfonyl)but-3-en-2-yl)piperidine-4-carboxamide]	6.13
C[C@H](/C=C\S(C)(=O)=O)NC(=O)C1(F)CCN(S(=O)(=O)c2ccc(Br)cc2-c2cc(F)ccc2Cl)CC1 [Compound 48, (R,Z)-1-((5-bromo-2′-chloro-5′-fluoro-[1,1′-biphenyl]-2-yl)sulfonyl)-4-fluoro-N-(4-(methylsulfonyl)but-3-en-2-yl)piperidine-4-carboxamide]	6.32
CCc1ccccc1-c1cc(Br)ccc1S(=O)(=O)N1CCC(F)(C(=O)N[C@H](C)/C=C\S(C)(=O)=O)CC1 [Compound 51, (R,Z)-1-((5-bromo-2′-ethyl-[1,1′-biphenyl]-2-yl)sulfonyl)-4-fluoro-N-(4-(methylsulfonyl)but-3-en-2-yl)piperidine-4-carboxamide]	6.26

Further compounds by rising pIC50, results first:

pIC50	SMILES
6.39	C[C@H](/C=C\[S@](C)(=N)=O)NC(=O)C1(F)CCN(S(=O)(=O)c2ccc(Br)cc2-c2ccccc2Cl)CC1 (single isomer, unassigned) [Compound 74, 1-((5-bromo-2′-chloro-[1,1′-biphenyl]-2-yl)sulfonyl)-4-fluoro-N-((R,Z)-4-((*R)-S-methylsulfonimidoyl)but-3-en-2-yl)piperidine-4-carboxamide]
6.41	COc1ccc(S(=O)(=O)N2CC[C@](F)(C(=O)N[C@H](C)/C=C\S(C)(=O)=O)C[C@H]2C)c(-c2ccccc2Cl)c1 (single isomer, unassigned) [Compound 147, (2*R,4*R)-1-((2′-chloro-5-methoxy-[1,1′-biphenyl]-2-yl)sulfonyl)-4-fluoro-2-methyl-N-((R,Z)-4-(methylsulfonyl)but-3-en-2-yl)piperidine-4-carboxamide]
6.50	C[C@H](/C=C\S(C)(=O)=O)NC(=O)C1(F)CCN(S(=O)(=O)c2ccc(Br)cc2-c2ccc(F)cc2Cl)CC1 [Compound 50, (R,Z)-1-((5-bromo-2′-chloro-4′-fluoro-[1,1′-biphenyl]-2-yl)sulfonyl)-4-fluoro-N-(4-(methylsulfonyl)but-3-en-2-yl)piperidine-4-carboxamide]
6.51	COc1ccc(S(=O)(=O)N2CC[C@](F)(C(=O)N[C@H](C)/C=C\S(C)(=O)=O)CC2(C)C)c(-c2ccccc2Cl)c1 (single isomer, unassigned) [Compound 150, (*R)-1-((2′-chloro-5-methoxy-[1,1′-biphenyl]-2-yl)sulfonyl)-4-fluoro-2,2-dimethyl-N-((R,Z)-4-(methylsulfonyl)but-3-en-2-yl)piperidine-4-carboxamide]
6.52	C[C@H](/C=C\S(C)(=N)=O)NC(=O)C1(F)CCN(S(=O)(=O)c2ccc(Br)cc2-c2ccccc2Cl)CC1 (mixture of isomers) [Compound 73, 1-((5-bromo-2′-chloro-[1,1′-biphenyl]-2-yl)sulfonyl)-4-fluoro-N-((2R,Z)-4-(S-methylsulfonimidoyl)but-3-en-2-yl)piperidine-4-carboxamide]
6.55	COc1ccc(S(=O)(=O)N2CCC(F)(C(=O)N[C@H](/C=C\S(C)(=O)=O)CC(F)(F)F)CC2)c(-c2ccccc2Cl)c1 (single isomer, unassigned) [Compound 239, (*S,Z)-1-((2′-chloro-5-methoxy-[1,1′-biphenyl]-2-yl)sulfonyl)-4-fluoro-N-(5,5,5-trifluoro-1-(methylsulfonyl)pent-1-en-3-yl)piperidine-4-carboxamide]
6.77	C[C@H](/C=C\S(C)(=O)=O)NC(=O)[C@@]1(F)CCCN(C(=O)[C@@H]2CN(CC(F)(F)F)C[C@@H]2c2c(F)ccc(F)c2Cl)CC1 (single isomer, unassigned) [Compound 226, (R)-1-((3*S,4*S)-4-(2-chloro-3,6-difluorophenyl)-1-(2,2,2-trifluoroethyl)pyrrolidine-3-carbonyl)-4-fluoro-N-((R,Z)-4-(methylsulfonyl)but-3-en-2-yl)azepane-4-carboxamide]
6.90	Cc1ccccc1-c1cc(Br)ccc1S(=O)(=O)N1CCC(F)(C(=O)N[C@H](C)/C=C\S(C)(=O)=O)CC1 [Compound 49, (R,Z)-1-((5-bromo-2′-methyl-[1,1′-biphenyl]-2-yl)sulfonyl)-4-fluoro-N-(4-(methylsulfonyl)but-3-en-2-yl)piperidine-4-carboxamide]
7.04	C[C@H](/C=C\S(C)(=O)=O)NC(=O)C1(F)CCN(S(=O)(=O)c2ccc(Cl)cc2-c2ccccc2Cl)CC1 [Compound 23, (R,Z)-1-((2′,5-dichloro-[1,1′-biphenyl]-2-yl)sulfonyl)-4-fluoro-N-(4-(methylsulfonyl)but-3-en-2-yl)piperidine-4-carboxamide]
7.27	O=C(NC1C=CS(=O)(=O)C1)C1(F)CCN(S(=O)(=O)c2ccc(Br)cc2-c2ccccc2Cl)CC1 (racemic) [Compound 65, rac-1-((5-bromo-2′-chloro-[1,1′-biphenyl]-2-yl)sulfonyl)-N-(1,1-dioxido-2,3-dihydrothiophen-3-yl)-4-fluoropiperidine-4-carboxamide]
7.42	C[C@@H](/C=C\S(C)(=O)=O)NC(=O)C1(F)CCN(S(=O)(=O)c2ccc(C(F)(F)F)cc2-c2ccccc2Cl)CC1 [Compound 18, (S,Z)-1-((2′-chloro-5-(trifluoromethyl)-[1,1′-biphenyl]-2-yl)sulfonyl)-4-fluoro-N-(4-(methylsulfonyl)but-3-en-2-yl)piperidine-4-carboxamide]
